Results taken from US6949558B2, “Enhancement of taxane-based chemotherapy by a CDK1 antagonist” (Yale University, priority 2001, dated 2005).
“And” between values parts separate entries of the source, which are not always exact repeats. Equal values may be shown once.

Key:
MCF-7 cells = experiment: Apoptosis by DNA content analysis and flow cytometry in MCF-7 cells; type: cell-based, human
Protocol: Cervical carcinoma HeLa (functionally inactivated p53) cells or breast carcinoma MCF-7 (wild type p53) cells were plated at 50-60% confluency in C-6 wells. […]
(§1) After 4, 8, 16, and 32 hours of incubation, without removing taxol from the wells, purvalanol A was added at three increasing concentrations, 1, 10 and 20 uM (FIG. 1). A control was performed with addition of purvalanol A at the 0-h time point.
(§2) The cell populations were harvested at increasing time intervals from the 0-h time point or corresponding to the addition of purvalanol A. Apoptosis was analyzed by DNA content analysis and flow cytometry (DAPI staining).

HeLa cells [1] = experiment: Apoptosis by DNA content analysis and flow cytometry in HeLa cells; type: cell-based, human
[2] = system: p34^cdc2 kinase activity (MPM-2 epitope) in HeLa cells; experiment: MPM-2 mitotic phosphoepitope expression (p34^cdc2 kinase activity) in HeLa cells; type: cell-based, human
caspase-9 = experiment: Caspase-9 processing by Western blotting in HeLa cells; conditions: taxol 0.2 μM, Purvalanol A 20 μM or sequential combination, 16 h
MCF-7 tumors = experiment: Breast cancer xenograft model (Example 8); type: in vivo, CB17 SCID/beige mice; conditions: taxol alone 2.5 or 5 mg/kg, Purvalanol A alone 20 mg/kg, i.p.
Protocol: Breast Cancer Xenograft Model: All experiments involving animals were approved by the institutional animal cure and use committee. Six- to eight-week old female CB17 SCID/beige mice (Taconic Farms, Germantown, N.Y.) were injected s.c. into the flanks with 2.5×10^6 exponentially growing MCF-7 cells in 250 μl of sterile PBS, pH 7.4. […] Animals were injected i.p. with taxol alone (2.5 or 5 mg/kg), Purvalanol A alone (20 mg/kg) or the sequential combination of taxol-Purvalanol A for two consecutive days each divided by a day with no treatment. For single agent treatment, vehicle was given in place of taxol or Purvalanol A with the same schedule. Each complete cycle was separated by 2 d without treatment. Tumor volume was measured in the three dimensions with a caliper. Animals with tumor burden >3000 mm^3 were sacrificed (Survival).
Statistical Analysis: All in vitro experiments were repeated at least three times. […] The survival curves were compared using the log-rank test. This test generates a P value testing the null hypothesis that the survival curves are identical in the overall populations.

[3] = system: survivin phosphorylation on Thr^34 in HeLa cells; experiment: Survivin phosphorylation on Thr^34 in HeLa cells (immunoprecipitation, Western blotting); type: cell-based, human; conditions: taxol 0.2 μM 16 h then Purvalanol A 20 μM 16 h
Protocol: A. In vitro kinase assay. […] Radioactive bands were detected by autoradiography. […] The immune complexesb were analyzed by Western blotting (WB) with an antibody to Thr^34-phosphorylated survivin (a-survivinT34*, top panel) or with an antibody to survivin (a-survivin, lower panel) followed by chemiluminescence. For all panels, relative molecular weight markers in kDa are shown on the left.
(§3) In some experiments, total RNA was extracted from MCF-7 cells at various time intervals after adriamycin treatment, and hybridized with 32 P-labeled survivin cDNA as described previously. Radioactive bands were detected by autoradiography. […] In other experiments, samples were transferred to nylon membranes and analyzed by Western blotting with antibodies to p34^cdc2 (1 μg/ml), survivin (2 μg/ml), or survivinT34* (5 μg/ml).
Luciferase values were normalized to β-galactosidase expression.

[4] = system: survivin expression in PC3 cells; experiment: Survivin expression by Western blotting in PC3 cells; type: cell-based; conditions: taxol then Purvalanol A
HeLa cells [5] = experiment: Apoptosis by DNA content analysis and flow cytometry in HeLa cells; type: cell-based, human; remark: listed apart in the source
Protocol: Cervical carcinoma HeLa (functionally inactivated p53) cells or breast carcinoma MCF-7 (wild type p53) cells were plated at 50-60% confluency in C-6 wells. Cells were treated with taxol at 0.2 μM for 0 to 32 hours in complete media.
as §1, §2

[6] = system: survivin expression in HeLa cells; experiment: Survivin expression by Western blotting in HeLa cells; type: cell-based, human
Protocol: (§4) Cell Cultures, Proteins and Antibodies: Breast carcinoma MCF-7 and cervical carcinoma HeLa cells (American Type Culture Collection, Manassas, Va.) were maintained in culture according to the manufacturer's specifications. For treatment with genotoxic agents, HeLa or MCF-7 cells were incubated with vehicle (DMSO) or taxol (2 μM, Sigma Chemical Co., St. Louis, Mo.), adriamycin (100 nM, Sigma), cis-platin (3 μM, Sigma) or subjected to ultraviolet B (UVB) irradiation at 50 or 300 J/m^2. In some experiments, HeLa or MCF-7 treated with taxol, adriamycin or UVB as described above were incubated with inhibitors of transcription (actinomycin D, 1 μg/ml) or translation (cycloheximide, 2 mg/ml) before determination of protein expression by Western blotting. […] A replication-deficient adenovirus encoding wild type survivin (pAd-Survivin) or control encoding Green Fluorescence Protein (pAd-GFP) was generated using the pAd-Easy system as described previously (M. Mesri et al. (2001) J. Clin. Invest. 108: 981-90), and propagated in HEK293 cells with purification by CsCl banding. […] Antibodies to p34^cdc2 or bcl-2 were obtained from Pharmingen (San Diego, Calif.) and R&D, respectively. An antibody to β-actin was from Sigma and antibodies to MPM-2 mitotic phosphoproteins was from Upstate Biotechnology (Lake Placid, N.Y.).
as §3
In other experiments, HeLa cells were treated with taxol (0.2 μM) for 16 h followed by the DNA damaging agent adriamycin (100 nM, Sigma) or the nucleoside analog 5-Fluorouracil (500 μM, Sigma) for 8-32 h at 37° C. […] In some experiments, HeLa cells were transfected by lipofectamine with a minimal survivin promoter construct upstream of a luciferase reporter gene (pLuc-cyc1.2), as described (F. Li et al. (1998) Nature 396: 580-584). Cells were treated with taxol (2 μM) or UVB (50 J/m2), and analyzed for changes in luciferase activity at increasing time intervals (12-36 h) in a luminometer. Luciferase values were normalized to β-galactosidase expression. […] The immune complexes were separated by SDS gel electrophoresis and analyzed with antibodies to survivin or a-survivinT34* by Western blotting.

MCF-7 xenografts = type: in vivo; conditions: adriamycin 2 mg/kg or flavopiridol 15 mg/kg alone, i.p.
Text: Each complete cycle was separated by 2 d without treatment.
This test generates a P value testing the null hypothesis that the survival curves are identical in the overall populations.

[7] = system: survivin mRNA in MCF-7 cells; experiment: Northern hybridization of survivin mRNA in MCF-7 cells; type: cell-based, human; conditions: adriamycin-treated MCF-7 cells
Protocol: as §3

[8] = system: p34^cdc2 kinase activity (MPM-2 epitope) in MCF-7 cells; experiment: MPM-2 mitotic phosphoepitope expression (p34^cdc2 kinase activity) in MCF-7 cells; type: cell-based, human; conditions: adriamycin-induced G2/M arrest
Protocol: MPM-2 Mitotic Phosphoepitope Expression: For detection of mitotic phosphoproteins (D. D. Vandre et al. (1989) J. Cell Sci. 94: 245-58), MCF-7 cells (1-2×10^5 cells/60 mm dish) were treated with taxol (2 μM), adriamycin (100 nM), 50 or 300 J/m^2 UVB irradiation and cultured for 0, 8, 16, 24 or 36 h at 37° C. Cells were fixed in 70% ethanol, labeled with MPM-2 antibody (6 μg/ml) followed by addition of goat anti-mouse FITC (Boehringer Mannheim) for 1 h at 22° C. in the presence of 5 μg/ml propidium iodide (PI) containing 50 μg/ml RNase A. Samples were analyzed on a FACScan (Becton Dickinson, Mountain View, Calif.), using CellQuest software.
MPM-2 Mitotic Phosphoepitope Expression: For detection of mitotic phosphoproteins (D. D. Vandre et al. (1989) J. Cell Sci. 94: 245-258), MCF-7 cells (1-2×10^5 cells/60 mm dish) were treated with taxol (0.2 μM), or vincristine (100 nM) for increasing time intervals (8-36 h) at 37° C. Cells were fixed in 70% ethanol, labeled with MPM-2 antibody (6 μg/ml; Upstate Biotechnology, Lake Placid, N.Y.) followed by addition of goat anti-mouse FITC (Boehringer Mannheim) for 1 h at 22° C. in the presence of 5 μg/ml propidium iodide containing 50 μg/ml RNAse A. Samples were analyzed on a FACScan (Becton Dickinson, Mountain View, Calif.), using CellQuest software. Data are expressed as %MPM-2 positive cells in the entire population.

[9] = system: survivin expression in MCF-7 cells; experiment: Survivin expression by Western blotting in MCF-7 cells; type: cell-based, human; conditions: 100 nM adriamycin
Protocol: as §4, §3

[10] = taxol 2 μM, adriamycin 100 nM, cis-platin 3 μM (Example 7)

**Q.** For `CC(C)[C@H](CO)Nc1nc(Nc2cccc(Cl)c2)c2ncn(C(C)C)c2n1` [Purvalanol A], which “efficacy of taxol followed by purvalanol A compared with HeLa cells” value (MCF-7 cells; taxol 0.2 μM then purvalanol A) is on record?
**A.** nearly identical

**Q.** And the “synergy with vincristine treatment” value (MCF-7 cells; vincristine 10 nM and 100 nM then purvalanol A 10 uM)?
**A.** did not synergize with vincristine treatment

**Q.** What about the “vincristine-induced apoptosis in the presence or the absence of Purvalanol A” value (HeLa cells [1]; after 96 h) of the same molecule?
**A.** indistinguishable

**Q.** And the “apoptosis, purvalanol A alone or reversed schedule” value (HeLa cells [1]; purvalanol A 1, 10, 20 uM alone or followed by 0.2 uM taxol)?
**A.** no apoptosis at all

**Q.** What about the apoptosis (HeLa cells [1]; taxol 0.2 μM then 20 uM purvalanol A, 16 h after purvalanol A addition) of the same molecule?
**A.** ~90%

**Q.** And the “effect of sequential addition to taxol-treated cells” value (HeLa cells [1]; taxol 0.2 μM then Purvalanol A)?
**A.** escape from the mitotic block, and massive apoptosis

**Q.** What about the apoptosis (HeLa cells [1]; vincristine then Purvalanol A, throughout a 32-h culture) of the same molecule?
**A.** did not result in induction of apoptosis

**Q.** What about the “inhibition of kinase activity (MPM-2 epitope)” value ([2]; 16 h after addition of purvalanol A in taxol-treated cells, cell line not stated) of the same molecule?
**A.** 70-80%

**Q.** What about the “MPM-2 mitotic phosphoepitope expression” value ([2]; HeLa, taxol 0.2 μM 16 h then Cdk inhibitor for 16 h (Purvalanol A 10 μM, alsterpaullone 20 μM, flavopiridol 250 nM, olomoucine 400 μM)) of the same molecule?
**A.** completely suppressed MPM-2 mitotic phosphoepitope expression

**Q.** And the “MPM-2 mitotic phosphoepitope expression” value ([2]; HeLa, taxol 0.2 μM 16 h then Cdk inhibitor for 32 h)?
**A.** completely suppressed MPM-2 mitotic phosphoepitope expression

**Q.** And the “p34^cdc2 kinase activity” value ([2]; HeLa, vincristine 100 nM then Purvalanol A 20 μM, earliest time point tested of 8 h)?
**A.** suppressed p34^cdc2 kinase activity

**Q.** What about the caspase-9 processing (caspase-9) of the same molecule?
**A.** did not result in significant caspase-9 cleavage

**Q.** And the “kinetics of tumor growth” value (MCF-7 tumors)?
**A.** did not affect the kinetics of tumor growth

**Q.** And the “phosphorylation of endogenous survivin on Thr^34” value [3]?
**A.** suppressed phosphorylation of endogenous survivin on Thr^34

**Q.** What about the “effect on taxol-induced increase of survivin expression” value [4] of the same molecule?
**A.** reversed

**Q.** What about the “cell population with hypodiploid (apoptotic) DNA content / cell death” value (HeLa cells [5]; HeLa, 16 h, taxol 0.2 μM, Purvalanol A 20 μM, alone or sequential) of the same molecule?
**A.** 6%

**Q.** And the cell cycle arrest (HeLa cells [5]; HeLa, taxol 0.2 μM or purvalanol A 1-20 uM alone (Examples 1, 2))?
**A.** strong M arrest

**Q.** What about the apoptosis (HeLa cells [5]; HeLa, taxol 0.2 μM then 20 uM purvalanol A, 8 h after purvalanol A addition) of the same molecule?
**A.** 40%

**Q.** What about the “effect of purvalanol A on taxol-treated cells, concentration dependence” value (HeLa cells [5]; purvalanol A 1, 10 and 20 uM added after taxol 0.2 μM) of the same molecule?
**A.** dose dependent

**Q.** What about the survivin levels ([6]; Purvalanol A alone or Purvalanol A followed by taxol) of the same molecule?
**A.** did not affect survivin levels

**Q.** And the survivin expression ([6]; taxol 0.2 μM 16 h then Purvalanol A 20 μM 16 h)?
**A.** inhibition of increased survivin expression after taxol treatment

**Q.** What about the survivin expression ([6]; vincristine then Purvalanol A) of the same molecule?
**A.** reversed the increase in survivin expression

**Q.** `COc1cccc2c1C(=O)c1c(O)c3c(c(O)c1C2=O)C[C@@](O)(C(=O)CO)C[C@@H]3O[C@H]1C[C@H](N)[C@H](O)[C@H](C)O1` [adriamycin, doxorubicin] was tested. Which apoptosis (MCF-7 cells; adriamycin 100 nM alone, three values given, their conditions not stated) did it give?
**A.** 2% and 3% and 10%

**Q.** What about the apoptosis (MCF-7 cells; [10]) of the same molecule?
**A.** negligible apoptosis

**Q.** And the cell cycle arrest (MCF-7 cells; [10])?
**A.** G2/M arrest

**Q.** And the “enhancement of taxol-induced cell death” value (MCF-7 cells; taxol then adriamycin 100 nM and 200 nM in place of purvalanol A)?
**A.** did not enhance taxol-induced cell death

**Q.** And the “enhancement of apoptosis vs single agent treatment” value (HeLa cells [1]; taxol 0.2 μM 16 h then adriamycin 100 nM or 5-Fluorouracil 500 μM)?
**A.** did not result in enhanced apoptosis

**Q.** And the “kinetics of tumor growth vs vehicle” value (MCF-7 xenografts)?
**A.** did not affect the kinetics of tumor growth

**Q.** What about the “survivin mRNA” value [7] of the same molecule?
**A.** no detectable increase in survivin mRNA

**Q.** And the “residual cell population exhibiting MPM-2 expression” value [8]?
**A.** 20-25%

**Q.** What about the survivin expression [9] of the same molecule?
**A.** increased survivin expression
